From PMC10041525, “New Dual Inhibitors of Bacterial Topoisomerases with Broad-Spectrum Antibacterial Activity and In Vivo Efficacy against Vancomycin-Intermediate Staphylococcus aureus” (Journal of Medicinal Chemistry, 2023)
Values after ≈ are worked out from the molar mass of the structure shown. Like-named read-outs stand apart in the source and are kept apart here.

What was measured:
[1] = system: Haemophilus influenzae (n = 14); assay: MIC broth microdilution at IHMA Europe; format: cell-based, H. influenzae; settings: for MIC: Haemophilus influenzae, read-out: MIC
S. pneumoniae (n = 12) = assay: MIC broth microdilution at IHMA Europe; format: cell-based; settings: for MIC: Streptococcus pneumoniae, read-out: MIC
E. faecalis ATCC 29212 [2] = assay: IHMA QC MIC; format: cell-based
From the text: (§1) Supplement jm2c01905_si_004.xlsx, sheet "QC" | column: MIC [µg/mL]

H. influenzae ATCC 49247 = assay: IHMA QC MIC; format: cell-based; settings: Haemophilus influenzae, read-out: MIC
From the text: as §1

H. influenzae ATCC 49766 = assay: IHMA QC MIC; format: cell-based
From the text: as §1

S. pneumoniae ATCC 49619 = assay: IHMA QC MIC; format: cell-based
From the text: as §1

P. aeruginosa ATCC 27853 = system: P. aeruginosa ATCC 27853; design: method as in earlier work; settings: QC range for P. aeruginosa ATCC 27853, ref CLSI; cited from earlier work
E. faecalis ATCC 29212 [3] = system: E. faecalis ATCC 29212; design: method as in earlier work; settings: QC range for E. faecalis ATCC 29212, ref CLSI; cited from earlier work

SMILES: C[C@@H](O)[C@H]1C(=O)N2C(C(=O)O)=C(SCCNC=N)C[C@H]12 [Imipenem, imipenem]
- MIC ([1]; H. influenzae IHMA N° 1227715): 1 µg/mL (≈ 3.34 µM)
- MIC ([1]; H. influenzae IHMA N° 1241620): 0.5 µg/mL (≈ 1.67 µM)
- MIC ([1]; H. influenzae IHMA N° 1244149): 0.5 µg/mL (≈ 1.67 µM)
- MIC ([1]; H. influenzae IHMA N° 1249803): 0.25 µg/mL (≈ 0.835 µM)
- MIC ([1]; H. influenzae IHMA N° 1254355): 0.5 µg/mL (≈ 1.67 µM)
- MIC ([1]; H. influenzae IHMA N° 1258580): 0.5 µg/mL (≈ 1.67 µM)
- MIC ([1]; H. influenzae IHMA N° 1262734): 0.5 µg/mL (≈ 1.67 µM)
- MIC ([1]; H. influenzae IHMA N° 1272723): 0.5 µg/mL (≈ 1.67 µM)
- MIC ([1]; H. influenzae IHMA N° 1286846): 0.5 µg/mL (≈ 1.67 µM)
- MIC ([1]; H. influenzae IHMA N° 1337530): 1 µg/mL (≈ 3.34 µM)
- MIC ([1]; H. influenzae IHMA N° 1440085): 0.12 µg/mL (≈ 0.401 µM)
- MIC ([1]; H. influenzae IHMA N° 1479509): 0.5 µg/mL (≈ 1.67 µM)
- MIC ([1]; H. influenzae IHMA N° 1952952): 0.12 µg/mL (≈ 0.401 µM)
- MIC ([1]; H. influenzae IHMA N° 2047461): 0.5 µg/mL (≈ 1.67 µM)
- Cumulative % at MIC ([1]; MIC 0.5 µg/mL): 85.7%
- No. of isolates at MIC ([1]; MIC 0.5 µg/mL): 9
- Cumulative % at MIC ([1]; MIC 1 µg/mL): 100.0%
- No. of isolates at MIC ([1]; MIC 1 µg/mL): 2
- Cumulative % at MIC (S. pneumoniae (n = 12); MIC 0.06 µg/mL): 25.0%
- No. of isolates at MIC (S. pneumoniae (n = 12); MIC 0.06 µg/mL): 1
- Cumulative % at MIC (S. pneumoniae (n = 12); MIC 1 µg/mL): 100.0%
- No. of isolates at MIC (S. pneumoniae (n = 12); MIC 1 µg/mL): 1
- Cumulative % at MIC (S. pneumoniae (n = 12); MIC ≤0.015 µg/mL): 16.7%
- No. of isolates at MIC (S. pneumoniae (n = 12); MIC ≤0.015 µg/mL): 2
- MIC (S. pneumoniae (n = 12); S. pneumoniae IHMA N° 1775387): 0.25 µg/mL (≈ 0.835 µM)
- MIC (S. pneumoniae (n = 12); S. pneumoniae IHMA N° 1776057): 0.25 µg/mL (≈ 0.835 µM)
- MIC (S. pneumoniae (n = 12); S. pneumoniae IHMA N° 1785617): 0.25 µg/mL (≈ 0.835 µM)
- MIC (S. pneumoniae (n = 12); S. pneumoniae IHMA N° 1800765): ≤ 0.015 µg/mL
- MIC (S. pneumoniae (n = 12); S. pneumoniae IHMA N° 1811259): 0.12 µg/mL (≈ 0.401 µM)
- MIC (S. pneumoniae (n = 12); S. pneumoniae IHMA N° 1831562): ≤ 0.015 µg/mL
- MIC (S. pneumoniae (n = 12); S. pneumoniae IHMA N° 1902609): 0.12 µg/mL (≈ 0.401 µM)
- MIC (S. pneumoniae (n = 12); S. pneumoniae IHMA N° 1979675): 0.25 µg/mL (≈ 0.835 µM)
- MIC (S. pneumoniae (n = 12); S. pneumoniae IHMA N° 1991963): 1 µg/mL (≈ 3.34 µM)
- MIC (S. pneumoniae (n = 12); S. pneumoniae IHMA N° 2057487): 0.12 µg/mL (≈ 0.401 µM)
- MIC (S. pneumoniae (n = 12); S. pneumoniae IHMA N° 2073087): 0.25 µg/mL (≈ 0.835 µM)
- MIC (S. pneumoniae (n = 12); S. pneumoniae IHMA N° 2117109): 0.06 µg/mL (≈ 0.2 µM)
- MIC (E. faecalis ATCC 29212 [2]; Enterococcus faecalis, ATCC29212, QC strain E. faecalis ATCC 29212, test date 2021-11-11, read-out: MIC): 1 µg/mL (≈ 3.34 µM)
- MIC (E. faecalis ATCC 29212 [2]; QC strain E. faecalis ATCC 29212, test date 2021-11-26): 1 µg/mL (≈ 3.34 µM)
- MIC (H. influenzae ATCC 49247; ATCC49247, QC strain H. influenzae ATCC 49247, test date 2021-11-11): 0.25 µg/mL (≈ 0.835 µM)
- MIC (H. influenzae ATCC 49247; ATCC49247, QC strain H. influenzae ATCC 49247, test date 2021-11-26): 0.12 µg/mL (≈ 0.401 µM)
- MIC (H. influenzae ATCC 49766; Haemophilus influenzae, ATCC49766, QC strain H. influenzae ATCC 49766, test date 2021-11-11, read-out: MIC): 0.5 µg/mL (≈ 1.67 µM)
- MIC (H. influenzae ATCC 49766; QC strain H. influenzae ATCC 49766, test date 2021-11-26): 0.5 µg/mL (≈ 1.67 µM)
- MIC (S. pneumoniae ATCC 49619; QC strain S. pneumoniae ATCC 49619, test date 2021-11-26): 0.03 µg/mL (≈ 0.1 µM)
- MIC (S. pneumoniae ATCC 49619; Streptococcus pneumoniae, ATCC49619, QC strain S. pneumoniae ATCC 49619, test date 2021-11-11, read-out: MIC): 0.03 µg/mL (≈ 0.1 µM)
- MIC, CLSI Range (P. aeruginosa ATCC 27853): 1 to 4 µg/mL
- MIC, CLSI Range (E. faecalis ATCC 29212 [3]): 0,5 - 2 µg/mL
